Measured values as given in patent EP0837071A1, “Tripeptide antithrombotic agents” (ELI LILLY AND COMPANY, priority 1990, dated 1992).
Like-named read-outs stand apart in the source and are kept apart here.

Assays:
[1] = test system: Arterial Thrombosis in the Rat; experiment: FeCl3-induced arterial thrombosis in the carotid artery of the rat; format: in vivo; details: infusion from 15 min before to 60 min after FeCl3 application, NA = Not active at 4 mg/kg/h or at 7 mg/kg/h, the highest doses tested
Description: The antithrombotic activity of representative compounds of the invention was determined in in vivo tests carried out in the rat. The test employed induced arterial thrombosis in the carotid artery of the rat and measured the infusion dose of test compound required to maintain blood flow for fifty minutes past the time of occlusion. The test was performed as follows.
Arterial thrombosis was induced in the rat by injury of the carotid artery. Topical application of a ferric chloride solution was used to injure the vessel. […] Animals were laid on a water blanket in which the circulated water was maintained at 37° C. The carotid artery was approached through a midline cervical incision. Careful blunt dissection was used to expose and isolate the vessel from the carotid sheath. A silk suture was pulled underneath the artery to lift the vessel to provide clearance to insert a thermocouple underneath it. […] The discs were cut to equal size using sharpened stainless steel tubing (3 mm i.d.) chucked in a drill press. A saturated disc was placed on each carotid artery above the thermocouple. The time between FeCl3 application and the time at which temperature decreased abruptly was recorded as time to occlusion (TTO) of the vessel. The average time required for both vessels to occlude was used to represent TTO for each animal.
Test compounds were dissolved in isotonic saline. A syringe pump was used to infuse drug solutions starting 15 min before FeCl3 application and continuing for 60 min after FeCl3 application. Dose-response curves were plotted to determine the relationship between the log10 of the infused doses and the TTO of the injured arteries.
The association between vessel occlusion and the abrupt temperature decrease was established by simultaneously recording the temperature and blood flow on the same recorder. A pulsed Doppler flow probe was placed around the carotid artery proximal to the thermocouple. […] Results were reported as percent change from initial baseline values (6 min before occlusion). The time at which vessel temperature decreased rapidly was arbitrarily established as zero and pre- and post-occlusion temperature and flow values were referenced from that point.

[2] = test system: plasma; experiment: Plasma coagulation assay: prothrombin time; format: biochemical; details: thromboplastin (Dade)
Description: (§1) The numerical values in the table are the concentrations of the test compounds (ng/ml) required to prolong coagulation by 2-fold in the three tests. The thrombin time evaluation was carried out in plasma and separately determined in a buffer system at […].
(§2) The data presented in Table 2 were obtained using a CoaScreener instrument from Tecan, Inc. in the assay protocols listed below. Prothrombin Time: 50 µl plasma 50 µl saline 7 µl test solution 50 µl thromboplastin (Dade) Thrombin Time: 50 µl plasma 50 µl saline 7 µl test compound 50 µl bovine thrombin (2 NIH unit/ml) In the Thrombin Time determined in pH 7.4 buffer fibrinogen was used instead of plasma. APTT: 50 µl plasma 50 µl Actin (Dade) 7 µl test solution 50 µl CaCl2 (0.01M).

[3] = molecular target: T1, thrombin (Bos taurus, UniProt P00735); experiment: Inhibition of thrombin amidase activity (chromogenic substrate N-benzoyl-D-phenylalanyl-L-valyl-L-arginyl-p-nitroanilide); format: biochemical
T1 construct: purchased
Description: The data in the table were obtained in an assay in which thrombin hydrolyzes the chromogenic substrate, N-benzoyl-D-phenylalanyl-L-valyl-L-arginyl-p-nitroanilide.
The assay was carried out in 50 µl buffer (0.03M Tris, 0.15M NaCl, pH 7.4) with 25 µl of thrombin solution (0.21 mg/ml of thrombostat powder in 0.06 M Tris, 0.3M NaCl, pH 7.4) and 150 µl of an aqueous solution of the chromogenic substrate at a concentration of 0.25 mg/ml. Solutions of test compound (25 µl) at various concentrations were added. […] Standard curves were constructed by plotting free thrombin concentration against hydrolysis rate. […] The amount of free inhibitor in each assay was calculated by subtracting the number of moles of bound thrombin from the number of moles of added inhibitor (test compound).
The Kass value is the hypothetical equilibrium constant for the reaction between thrombin and the test compouhnd (I). Thrombin + I ⇄ Thrombin - I [formula] Kass =([Thrombin I])/([ (Thrombin) x (I) ]) [formula]
Kass was calculated for a range of concentrations of test compounds and the mean value is reported in units of liter per mole.

[4] = test system: plasma; experiment: Plasma coagulation assay: activated partial thromboplastin time (APTT); format: biochemical; details: Actin (Dade), CaCl2
Description: as §1, §2

[5] = molecular target: T2, bovine thrombin (Bos taurus, UniProt P00735); experiment: Plasma coagulation assay: thrombin time; format: biochemical; details: plasma, bovine thrombin (2 NIH unit/ml)
T2 construct: 50 µl bovine thrombin (2 NIH unit/ml)
Description: as §1, §2

[6] = molecular target: T2, bovine thrombin; experiment: Thrombin time in buffer (fibrinogen instead of plasma); format: biochemical; details: buffer pH 7.5, fibrinogen instead of plasma
Description: as §1, §2

| Kd [3] | SMILES | ED50 (infusion dose required to maintain blood flow for 50 min) [1] | Prothrombin Time: concentration of test compounds required to prolong coagulation by 2-fold [2] | APTT: concentration of test compounds required to prolong coagulation by 2-fold [4] | Thrombin Time: concentration of test compounds required to prolong coagulation by 2-fold [5] | Buffer (pH 7.5) Thrombin Time: concentration of test compounds required to prolong coagulation by 2-fold [6] | Kd ([3]; apparent equilibrium (association) constant, mean over a range of concentrations, pH 7.4, acetate salts unless indicated otherwise, read-out: Thrombin Amidase Kass (converted)) |
| --- | --- | --- | --- | --- | --- | --- | --- |
| 19.2 nM | CC(C)(C)OC(=O)N[C@@H](C(=O)N1CCC[C@H]1C(=O)N[C@H](C=O)CCCNC(=N)N)c1cccc2ccccc12 [N-Boc-D-1-naphthylglycyl, N-Boc-D-1-naphthylglycyl-Pro-Arg-H diacetate] | 6.4 mg/kg/h | 1225 ng/mL | 3100 ng/mL | 230 ng/mL | 105 ng/ml |  |
|  | CC(C)(C)OC(=O)NC(C(=O)N1CCC[C@H]1C(=O)N[C@H](C=O)CCCNC(=N)N)c1cccc2ccccc12 (mixture of isomers) [N-Boc-DL-1-naphthylglycyl] | 5.5 mg/kg/h | 1136 ng/mL | 2272 ng/mL | 320 ng/mL | 112 ng/ml | 55.2 nM |
